Reference: patent US20250312352A1, “GLP-1R MODULATING COMPOUNDS” (Gilead Sciences, Inc., priority 2021, published 2025)

What follows are compounds tested against T1, GLP-1R (Homo sapiens, UniProt P43220) (assay: GLP-1R activation cAMP assay (Assay 1 or Assay 2)). Conditions: cAMP increase in CHO cells stably expressing GLP-1R; compounds run on one of the two cAMP assays.
T1 construct: host or cells: CHO cells
Assay type: cell-based
Method: GLP-1R ACTIVATION—cAMP Assay 1
GLP-1R activation by compounds of the present disclosure was quantified by measuring cAMP increase in CHO cells stably expressing GLP-1R (MultiSpan product #C1267-1a). The cells were harvested and plated in growth medium (DMEM/F-12 (Corning product #10-090-CV) supplemented with 10% FBS (HyClone product #SH30071-03), penicillin/streptomycin (Corning product #30-002CI) and 10 μg/ml puromycin (Gibco product #A11138-03)) at 1,000 cells/well in a 384-well plate (Greiner product #781080). The cells were then incubated overnight at 37° C., 5% CO2. The next day, the medium was removed and the cells were washed with DPBS (Corning product #21-031-CM) before adding the assay medium (HBSS, Corning product #21-023-CV) with 20 mM Hepes (Gibco product #15630-080) and 0.1% BSA (Rockland Immunochemicals product #BSA-1000)). Following the medium change, the cells were incubated for 1 hour at 37° C., 5% CO2. The tested GLP-1 compound was added to the cells in a 10-point dose response followed by a 30-minute incubation at 37° C., 5% CO2. cAMP concentration increase was then detected using Cisbio's cAMP Gs Dynamic Kit (product #62AM4PEC) according to the manufacturer's protocol. The response was plotted against the log of the agonist concentration and fitted to a sigmoidal equation to determine the EC50.
GLP-1R ACTIVATION—cAMP Assay 2
GLP-1R activation by small molecule agonists was quantified by measuring cAMP increase in CHO cells stably expressing GLP-1R (MultiSpan product #C1267-1a). 50 nL of agonists were pre-spotted in a 10-point dose response onto 384-well plate (Corning product #CL3826) using the Labcyte Echo System.

T1 sequence (P43220 24-463): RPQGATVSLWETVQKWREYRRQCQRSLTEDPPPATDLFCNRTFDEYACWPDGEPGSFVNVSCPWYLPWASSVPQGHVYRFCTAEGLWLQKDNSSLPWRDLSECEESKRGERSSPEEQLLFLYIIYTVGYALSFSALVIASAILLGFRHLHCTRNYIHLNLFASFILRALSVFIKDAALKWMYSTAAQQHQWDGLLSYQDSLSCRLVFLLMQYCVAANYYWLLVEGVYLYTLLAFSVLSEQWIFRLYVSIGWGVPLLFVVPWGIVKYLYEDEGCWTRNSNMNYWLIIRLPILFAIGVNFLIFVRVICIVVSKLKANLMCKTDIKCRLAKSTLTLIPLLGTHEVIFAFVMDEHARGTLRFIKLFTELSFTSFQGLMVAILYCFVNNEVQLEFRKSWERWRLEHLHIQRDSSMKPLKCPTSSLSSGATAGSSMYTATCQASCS

EC50	Compound
0.433 nM	CNC(=O)c1cc(Cl)c(COc2cccc(-c3cc(F)c(Cc4nc5ccc(C(=O)O)cc5n4C[C@@H]4CCO4)cc3F)c2)cn1 [Example 444, (S)-2-((3′-((4-chloro-6-(methylcarbamoyl)pyridin-3-yl)methoxy)-2,5-difluoro-[1,1′-biphenyl]-4-yl)methyl)-1-(oxetan-2-ylmethyl)-1H-benzo[d]imidazole-6-carboxylic acid]
0.079 nM	CNC(=O)c1csc(COc2cccc(-c3cc(F)c(Cc4nc5ccc(C(=O)O)cc5n4C[C@@H]4CCO4)cc3F)n2)n1 [Example 373, (S)-2-(2,5-difluoro-4-(6-((4-(methylcarbamoyl)thiazol-2-yl)methoxy)pyridin-2-yl)benzyl)-1-(oxetan-2-ylmethyl)-1H-benzo[d]imidazole-6-carboxylic acid]
0.02 nM	O=C(O)c1cc(F)c2nc(Cc3c(F)cc(-c4ccc(F)c(OCc5ncc(C(F)(F)F)s5)n4)c(F)c3F)n(C[C@@H]3CCO3)c2c1 [Example 447, (S)-4-fluoro-1-(oxetan-2-ylmethyl)-2-(2,3,6-trifluoro-4-(5-fluoro-6-((5-(trifluoromethyl)thiazol-2-yl)methoxy)pyridin-2-yl)benzyl)-1H-benzo[d]imidazole-6-carboxylic acid]
0.689 nM	N#Cc1ccc(C#Cc2cnc(COc3cccc(-c4cc(F)c(Cc5nc6ccc(C(=O)O)cc6n5C[C@@H]5CCO5)cc4F)n3)nc2)cc1 [Example 404, (S)-2-(4-(6-((5-((4-cyanophenyl)ethynyl)pyrimidin-2-yl)methoxy)pyridin-2-yl)-2,5-difluorobenzyl)-1-(oxetan-2-ylmethyl)-1H-benzo[d]imidazole-6-carboxylic acid]
0.33 nM	Cn1cc(C#Cc2ccc(COc3cccc(-c4cc(F)c(Cc5nc6ccc(C(=O)O)cc6n5C[C@@H]5CCO5)cc4F)n3)c(F)n2)cn1 [Example 362, (S)-2-(2,5-difluoro-4-(6-((2-fluoro-6-((1-methyl-1H-pyrazol-4-yl)ethynyl)pyridin-3-yl)methoxy)pyridin-2-yl)benzyl)-1-(oxetan-2-ylmethyl)-1H-benzo[d]imidazole-6-carboxylic acid]
0.695 nM	C[C@H]1COC[C@H]1n1c(Cc2cc(F)c(-c3ccc(F)c(OCc4ncc(C(F)(F)F)s4)n3)cc2F)nc2ccc(C(=O)O)cc21 [Example 409, 2-(2,5-difluoro-4-(5-fluoro-6-((5-(trifluoromethyl)thiazol-2-yl)methoxy)pyridin-2-yl)benzyl)-1-((3S,4R)-4-methyltetrahydrofuran-3-yl)-1H-benzo[d]imidazole-6-carboxylic acid]
0.478 nM	NC(=O)c1cccc(COc2cccc(-c3cc(F)c(Cc4nc5ccc(C(=O)O)cc5n4C[C@@H]4CCO4)cc3F)n2)n1 [Example 374, (S)-2-(4-(6-((6-carbamoylpyridin-2-yl)methoxy)pyridin-2-yl)-2,5-difluorobenzyl)-1-(oxetan-2-ylmethyl)-1H-benzo[d]imidazole-6-carboxylic acid]

The remaining lines, values behind:

Compound	EC50
NC(=O)c1cc(F)c(COc2cccc(-c3cc(F)c(Cc4nc5c(F)cc(C(=O)O)cc5n4C[C@@H]4CCO4)cc3F)n2)cn1 [Example 241, (S)-2-(4-(6-((6-carbamoyl-4-fluoropyridin-3-yl)methoxy)pyridin-2-yl)-2,5-difluorobenzyl)-4-fluoro-1-(oxetan-2-ylmethyl)-1H-benzo[d]imidazole-6-carboxylic acid]	0.12 nM
Cn1nncc1C#Cc1ccc(COc2cccc(-c3cc(F)c(Cc4nc5ccc(C(=O)O)cc5n4C4COCC4(C)C)cc3F)n2)c(F)c1 (stereo not drawn) [Example 279, 2-(2,5-difluoro-4-(6-((2-fluoro-4-((1-methyl-1H-1,2,3-triazol-5-yl)ethynyl)benzyl)oxy)pyridin-2-yl)benzyl)-1-(4,4-dimethyltetrahydrofuran-3-yl)-1H-benzo[d]imidazole-6-carboxylic acid]	0.955 nM
CNC(=O)c1ccc(COc2cccc(-c3cc(F)c(Cc4nc5ccc(C(=O)O)cc5n4C[C@@H]4CCO4)cc3F)n2)cn1 [Example 43, (S)-2-(2,5-difluoro-4-(6-((6-(methylcarbamoyl)pyridin-3-yl)methoxy)pyridin-2-yl)benzyl)-1-(oxetan-2-ylmethyl)-1H-benzo[d]imidazole-6-carboxylic acid]	0.3 nM
O=C(O)c1ccc2nc(Cc3cc(F)c(-c4cccc(OCc5ncc(OCC(F)(F)F)s5)n4)cc3F)n(C[C@@H]3CCO3)c2c1 [Example 57, (S)-2-(2,5-difluoro-4-(6-((5-(2,2,2-trifluoroethoxy)thiazol-2-yl)methoxy)pyridin-2-yl)benzyl)-1-(oxetan-2-ylmethyl)-1H-benzo[d]imidazole-6-carboxylic acid]	0.73 nM
2-(4-(6-((5-(difluoromethyl)thiazol-2-yl)methoxy)pyridin-2-yl)-2,5-difluorobenzyl)-4-fluoro-1-((1-(fluoromethyl)cyclopropyl)methyl)-1H-benzo[d]imidazole-6-carboxylic acid [Example 413]	0.36 nM
Cn1cncc1C#Cc1cnc(COc2cccc(-c3cc(F)c(Cc4nc5ccc(C(=O)O)cc5n4C[C@@H]4CCO4)cc3F)n2)cn1 [Example 156, (S)-2-(2,5-difluoro-4-(6-((5-((1-methyl-1H-imidazol-5-yl)ethynyl)pyrazin-2-yl)methoxy)pyridin-2-yl)benzyl)-1-(oxetan-2-ylmethyl)-1H-benzo[d]imidazole-6-carboxylic acid]	1.19 nM
Cn1cc(C#Cc2cc(F)c(COc3cccc(-c4cc(F)c(Cc5nc6ccc(C(=O)O)cc6n5C[C@@H]5CCO5)cc4F)n3)s2)cn1 [Example 117, (S)-2-(2,5-difluoro-4-(6-((3-fluoro-5-((1-methyl-1H-pyrazol-4-yl)ethynyl)thiophen-2-yl)methoxy)pyridin-2-yl)benzyl)-1-(oxetan-2-ylmethyl)-1H-benzo[d]imidazole-6-carboxylic acid]	0.28 nM
O=C(O)c1ccc2nc(Cc3cc(F)c(-c4cccc(OCc5cncs5)n4)cc3F)n(C[C@@H]3CCO3)c2c1 [Example 167, (S)-2-(2,5-difluoro-4-(6-(thiazol-5-ylmethoxy)pyridin-2-yl)benzyl)-1-(oxetan-2-ylmethyl)-1H-benzo[d]imidazole-6-carboxylic acid]	0.87 nM
NC(=O)c1nc(COc2cccc(-c3cc(F)c(Cc4nc5ccc(C(=O)O)cc5n4C[C@@H]4CCO4)cc3F)n2)cs1 [Example 8, (S)-2-(4-(6-((2-carbamoylthiazol-4-yl)methoxy)pyridin-2-yl)-2,5-difluorobenzyl)-1-(oxetan-2-ylmethyl)-1H-benzo[d]imidazole-6-carboxylic acid]	0.92 nM
C[C@@H](C#N)NC(=O)c1cc(Cl)c(COc2cccc(-c3cc(F)c(Cc4nc5ccc(C(=O)O)cc5n4C[C@@H]4CCO4)cc3F)n2)cn1 [Example 201, 2-(4-(6-((4-chloro-6-(((S)-1-cyanoethyl)carbamoyl)pyridin-3-yl)methoxy)pyridin-2-yl)-2,5-difluorobenzyl)-1-(((S)-oxetan-2-yl)methyl)-1H-benzo[d]imidazole-6-carboxylic acid]	0.39 nM
CC1(C)COC[C@@H]1n1c(Cc2cc(F)c(-c3cccc(OCc4ccc(C(=O)NC5(C#N)CC5)nc4)n3)cc2F)nc2ccc(C(=O)O)cc21 [Example 202, (R)-2-(4-(6-((6-((1-cyanocyclopropyl)carbamoyl)pyridin-3-yl)methoxy)pyridin-2-yl)-2,5-difluorobenzyl)-1-(4,4-dimethyltetrahydrofuran-3-yl)-1H-benzo[d]imidazole-6-carboxylic acid]	0.58 nM
CNC(=O)c1cc(Cl)c(COc2cccc(-c3cc(F)c(Cc4nc5c(F)cc(C(=O)O)cc5n4C[C@@H]4CCO4)cc3F)n2)cn1 [Example 198, (S)-2-(4-(6-((4-chloro-6-(methylcarbamoyl)pyridin-3-yl)methoxy)pyridin-2-yl)-2,5-difluorobenzyl)-4-fluoro-1-(oxetan-2-ylmethyl)-1H-benzo[d]imidazole-6-carboxylic acid]	0.04 nM
O=C(O)c1ccc2nc(Cc3cc(F)c(-c4cccc(OCc5ccc(-c6cn(C7CCOCC7)nn6)cc5F)n4)cc3F)n(C[C@@H]3CCO3)c2c1 [Example 218, (S)-2-(2,5-difluoro-4-(6-((2-fluoro-4-(1-(tetrahydro-2H-pyran-4-yl)-1H-1,2,3-triazol-4-yl)benzyl)oxy)pyridin-2-yl)benzyl)-1-(oxetan-2-ylmethyl)-1H-benzo[d]imidazole-6-carboxylic acid]	0.8 nM
O=C(O)c1ccc2nc(Cc3cc(F)c(-c4cccc(OCc5cn6ccncc6n5)n4)cc3F)n(C[C@@H]3CCO3)c2c1 [Example 33, (S)-2-(2,5-difluoro-4-(6-(imidazo[1,2-a]pyrazin-2-ylmethoxy)pyridin-2-yl)benzyl)-1-(oxetan-2-ylmethyl)-1H-benzo[d]imidazole-6-carboxylic acid]	1.75 nM
